Data from the supplement of paper PMC10307832.

How the values were obtained:
Assay in all cases: relative viability (nuclei count vs DMSO), 5 days (fraction); higher = more cells survive
[1] = tested on: HCC-78
In short: (§1)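 After 5 days of treatment, lung cancer cells in 1536-well plates were fixed and stained in a single step (final 0.05% Triton X-100, 1% formaldehyde, 1 ug/ml Hoechst) and their nuclei counted on 4× images. Treatment had been applied by pin tool the day after seeding as one drug alone or as a fixed anchor-drug dose with five library-drug doses (not always all listed) in √10 steps. Relative viability is the nuclei count of treated wells divided by that of vehicle wells, and values are medians of duplicate plates.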

[2] = tested on: NCI-H1915
In short: as §1

[3] = tested on: NCI-H2126
In short: as §1

[4] = tested on: NCI-H2405
In short: as §1

[5] = tested on: LC-2-ad
In short: as §1

[6] = tested on: NCI-H520
In short: as §1

[7] = tested on: NCI-H2347
In short: as §1

[8] = tested on: COR-L 105
In short: as §1

[9] = tested on: EPLC-272H
In short: as §1

[10] = tested on: NCI-H2087
In short: as §1

[11] = tested on: NCI-H23
In short: as §1

[12] = tested on: LCLC-97TM1
In short: as §1

[13] = tested on: ChaGo-K-1
In short: as §1

[14] = tested on: PC-14
In short: as §1

[15] = tested on: 201T
In short: as §1

[16] = tested on: NCI-H647
In short: as §1

[17] = tested on: HCC-827
In short: as §1

[18] = tested on: RERF-LC-KJ
In short: as §1

[19] = tested on: H3255
In short: as §1

[20] = tested on: NCI-H661
In short: as §1

[21] = tested on: NCI-H1666
In short: as §1

[22] = tested on: NCI-H650
In short: as §1

`COc1cc2nccc(Oc3ccc(NC(=O)Nc4cc(C)on4)c(Cl)c3)c2cc1OC` [Tivozanib] + COc1cc2c(Oc3ccc(NC(=O)C4(C(=O)Nc5ccc(F)cc5)CC4)cc3F)ccnc2cc1OCCCN1CCOCC1 [Foretinib] (partner 0.25 µM) gave a relative viability ([1]; first compound 0.005 µM) of 0.539, a relative viability ([1]; first compound 0.01581 µM) of 0.543 and a relative viability ([1]; first compound 0.05 µM) of 0.534. The relative viability ([1]; first compound 0.1581 µM) was 0.556, the relative viability ([1]; first compound 0.5 µM) was 0.546 and the relative viability ([2]; first compound 0.005 µM) was 1.08. For the same compound, the relative viability ([2]; first compound 0.01581 µM) was 1.07, the relative viability ([2]; first compound 0.05 µM) was 1.1 and the relative viability ([2]; first compound 0.1581 µM) was 1.13. It also gave a relative viability ([2]; first compound 0.5 µM) of 1.09, a relative viability ([3]; first compound 0.005 µM) of 1.24 and a relative viability ([3]; first compound 0.01581 µM) of 1.11. It also gave a relative viability ([3]; first compound 0.05 µM) of 1.18, a relative viability ([3]; first compound 0.5 µM) of 1.25 and a relative viability ([4]; first compound 0.005 µM) of 1.03. It also gave a relative viability ([4]; first compound 0.01581 µM) of 1.04, a relative viability ([4]; first compound 0.05 µM) of 1.08 and a relative viability ([4]; first compound 0.1581 µM) of 1.07. For the same compound, the relative viability ([4]; first compound 0.5 µM) was 0.966, the relative viability ([5]; first compound 0.005 µM) was 0.917 and the relative viability ([5]; first compound 0.01581 µM) was 1.02. For the same compound, the relative viability ([5]; first compound 0.05 µM) was 0.857, the relative viability ([5]; first compound 0.1581 µM) was 0.972 and the relative viability ([5]; first compound 0.5 µM) was 0.788. For the same compound, the relative viability ([6]; first compound 0.005 µM) was 0.595, the relative viability ([6]; first compound 0.01581 µM) was 0.702 and the relative viability ([6]; first compound 0.05 µM) was 0.74. It also gave a relative viability ([6]; first compound 0.1581 µM) of 0.644, a relative viability ([6]; first compound 0.5 µM) of 0.712 and a relative viability ([7]; first compound 0.005 µM) of 0.905. It also gave a relative viability ([7]; first compound 0.01581 µM) of 1.09, a relative viability ([7]; first compound 0.05 µM) of 0.937 and a relative viability ([7]; first compound 0.5 µM) of 0.845. The relative viability ([8]; first compound 0.005 µM) was 1.06, the relative viability ([8]; first compound 0.01581 µM) was 1.06 and the relative viability ([8]; first compound 0.05 µM) was 1.13. For the same compound, the relative viability ([8]; first compound 0.1581 µM) was 1.23, the relative viability ([8]; first compound 0.5 µM) was 1.11 and the relative viability ([9]; first compound 0.005 µM) was 0.61. The relative viability ([9]; first compound 0.01581 µM) was 0.76, the relative viability ([9]; first compound 0.05 µM) was 0.724 and the relative viability ([9]; first compound 0.1581 µM) was 0.694. For the same compound, the relative viability ([9]; first compound 0.5 µM) was 0.655, the relative viability ([10]; first compound 0.005 µM) was 1.04 and the relative viability ([10]; first compound 0.01581 µM) was 1.12. The relative viability ([10]; first compound 0.05 µM) was 1.11, the relative viability ([10]; first compound 0.1581 µM) was 0.957 and the relative viability ([10]; first compound 0.5 µM) was 0.998. The relative viability ([11]; first compound 0.005 µM) was 0.907, the relative viability ([11]; first compound 0.01581 µM) was 1.04 and the relative viability ([11]; first compound 0.05 µM) was 1.04. It also gave a relative viability ([11]; first compound 0.1581 µM) of 0.942, a relative viability ([11]; first compound 0.5 µM) of 1.1 and a relative viability ([12]; first compound 0.005 µM) of 0.904. It also gave a relative viability ([12]; first compound 0.01581 µM) of 0.939, a relative viability ([12]; first compound 0.05 µM) of 0.92 and a relative viability ([12]; first compound 0.1581 µM) of 0.982. The relative viability ([12]; first compound 0.5 µM) was 0.928, the relative viability ([13]; first compound 0.005 µM) was 0.841 and the relative viability ([13]; first compound 0.01581 µM) was 0.914. It also gave a relative viability ([13]; first compound 0.05 µM) of 0.869, a relative viability ([13]; first compound 0.1581 µM) of 0.889 and a relative viability ([13]; first compound 0.5 µM) of 0.86. The relative viability ([14]; first compound 0.005 µM) was 0.911, the relative viability ([14]; first compound 0.01581 µM) was 0.959 and the relative viability ([14]; first compound 0.05 µM) was 1.01. The relative viability ([14]; first compound 0.1581 µM) was 1.09, the relative viability ([14]; first compound 0.5 µM) was 0.904 and the relative viability ([15]; first compound 0.005 µM) was 1.14. It also gave a relative viability ([15]; first compound 0.01581 µM) of 1.15, a relative viability ([15]; first compound 0.05 µM) of 1.08 and a relative viability ([15]; first compound 0.1581 µM) of 1.08. For the same compound, the relative viability ([15]; first compound 0.5 µM) was 1.16, the relative viability ([16]; first compound 0.005 µM) was 1.05 and the relative viability ([16]; first compound 0.01581 µM) was 1.28. The relative viability ([16]; first compound 0.05 µM) was 1.26, the relative viability ([16]; first compound 0.1581 µM) was 1.13 and the relative viability ([16]; first compound 0.5 µM) was 1.2. For the same compound, the relative viability ([17]; first compound 0.005 µM) was 0.994, the relative viability ([17]; first compound 0.01581 µM) was 1.09 and the relative viability ([17]; first compound 0.05 µM) was 1.02. For the same compound, the relative viability ([17]; first compound 0.1581 µM) was 1.09, the relative viability ([17]; first compound 0.5 µM) was 1.01 and the relative viability ([18]; first compound 0.005 µM) was 0.821. For the same compound, the relative viability ([18]; first compound 0.01581 µM) was 0.79, the relative viability ([18]; first compound 0.05 µM) was 0.849 and the relative viability ([18]; first compound 0.1581 µM) was 0.919. It also gave a relative viability ([18]; first compound 0.5 µM) of 0.863, a relative viability ([19]; first compound 0.005 µM) of 0.831 and a relative viability ([19]; first compound 0.01581 µM) of 0.839. For the same compound, the relative viability ([19]; first compound 0.05 µM) was 0.907, the relative viability ([19]; first compound 0.1581 µM) was 0.66 and the relative viability ([19]; first compound 0.5 µM) was 0.735. It also gave a relative viability ([20]; first compound 0.005 µM) of 1, a relative viability ([20]; first compound 0.01581 µM) of 0.997 and a relative viability ([20]; first compound 0.05 µM) of 1.03. It also gave a relative viability ([20]; first compound 0.1581 µM) of 0.806, a relative viability ([20]; first compound 0.5 µM) of 0.987 and a relative viability ([21]; first compound 0.005 µM) of 0.973. For the same compound, the relative viability ([21]; first compound 0.01581 µM) was 0.971, the relative viability ([21]; first compound 0.05 µM) was 1.04 and the relative viability ([21]; first compound 0.1581 µM) was 0.963. For the same compound, the relative viability ([21]; first compound 0.5 µM) was 0.999, the relative viability ([22]; first compound 0.005 µM) was 1 and the relative viability ([22]; first compound 0.01581 µM) was 1.02. The relative viability ([22]; first compound 0.05 µM) was 0.994, the relative viability ([22]; first compound 0.1581 µM) was 1.02 and the relative viability ([22]; first compound 0.5 µM) was 0.928.
